One assay deals with A498. As to the kind of experiment: NCI 60-cell line growth inhibition assay, A498. Format: cell-based, human. As to conditions: Renal. From the text: (§1) The following data in Table 4 summarize the growth inhibition properties of several compounds of the present invention against 60-human transformed cell lines.
Another assay relates to BT-549. As to the kind of experiment: NCI 60-cell line growth inhibition assay, BT-549. It is filed as cell-based, human. As to conditions: Breast.
Source text: as §1

A further assay deals with HCT-116. Description: NCI 60-cell line growth inhibition assay, HCT-116. Format: cell-based, human. The note with it: Colon.
Source text: as §1

Assay [1] relates to MCF-7 human breast carcinoma line. Description: MCF-7 GI50 determination (crystal violet). It is filed as cell-based. As to conditions: MCF-7, 4 days of treatment, crystal violet, read-out: MCF-7 Cells GI50. The procedure, abridged:
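MCF-7 cells seeded at 2×10^4 cells/well, grown 24 h drug-free, then exposed to 10-fold compound dilutions for 4 days. Glutaraldehyde-fixed cells stained with crystal violet, absorbance read at 570 nm; GI=100×(T/T0) against day-0 control OD, GI50 from growth inhibition versus concentration plots.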

Another assay deals with NCI-H322M. As to the kind of experiment: NCI 60-cell line growth inhibition assay, NCI-H322M. Format: cell-based, human. The note with it: Non-Small Cell Lung.
Source text: as §1

The next assay concerns CAKI-1. As to the kind of experiment: NCI 60-cell line growth inhibition assay, CAKI-1. It is filed as cell-based, human. The note with it: Renal.
Source text: as §1

For a further assay, the system named is 786-0. As to the kind of experiment: NCI 60-cell line growth inhibition assay, 786-0. Format: cell-based, human. As to conditions: Renal.
Source text: as §1

In the next assay the test system is OVCAR-3. As to the kind of experiment: NCI 60-cell line growth inhibition assay, OVCAR-3. As to conditions: Ovarian. Format: cell-based, human.
Source text: as §1

A further assay concerns MOLT-4. As to the kind of experiment: NCI 60-cell line growth inhibition assay, MOLT-4. Format: cell-based. As to conditions: Homo sapiens, Leukemia.
Source text: as §1

The test system of a further assay is SK-OV-3. As to the kind of experiment: NCI 60-cell line growth inhibition assay, SK-OV-3. It is filed as cell-based. As to conditions: Homo sapiens, Ovarian.
Source text: as §1

Another assay concerns COLO 205. Description: NCI 60-cell line growth inhibition assay, COLO 205. It is filed as cell-based. The note with it: Homo sapiens, Colon.
Source text: as §1

Another assay concerns SK-MEL-5. Description: NCI 60-cell line growth inhibition assay, SK-MEL-5. Format: cell-based. The note with it: Homo sapiens, Melanoma.
Source text: as §1

For another assay, the system named is EKVX. Description: NCI 60-cell line growth inhibition assay, EKVX. The note with it: Homo sapiens, Non-Small Cell Lung. It is filed as cell-based.
Source text: as §1

For another assay, the system named is SNB-19. As to the kind of experiment: NCI 60-cell line growth inhibition assay, SNB-19. It is filed as cell-based. As to conditions: Homo sapiens, CNS.
Source text: as §1

Another assay concerns OVCAR-4. As to the kind of experiment: NCI 60-cell line growth inhibition assay, OVCAR-4. Format: cell-based. The note with it: Homo sapiens, Ovarian.
Source text: as §1

The next assay relates to HCC-2998. Description: NCI 60-cell line growth inhibition assay, HCC-2998. It is filed as cell-based. The note with it: Homo sapiens, Colon.
Source text: as §1

Another assay concerns SK-MEL-28. Description: NCI 60-cell line growth inhibition assay, SK-MEL-28. Format: cell-based. As to conditions: Homo sapiens, Melanoma.
Source text: as §1

The next assay has as its system OVCAR-5. As to the kind of experiment: NCI 60-cell line growth inhibition assay, OVCAR-5. The note with it: Homo sapiens, Ovarian. Format: cell-based.
Source text: as §1

Where two headings read alike, the source gives them in different places.

As usually defined, the GI50 is the concentration at which growth is held to half of that of the control. Consider 11′-bromovinorelbine [Example 1], for which the concentration for 50% growth inhibition (GI50) was less than 0.01 µM in the assay on A498; less than 0.01 µM in the assay on BT-549; less than 0.01 µM in the assay with HCT-116; 0.003 µM in assay [1]; less than 0.01 µM in the assay with NCI-H322M; less than 0.01 µM in the assay on CAKI-1. Besides, the GI50 with 786-0 and in the assay with OVCAR-3 was less than 0.01 µM throughout.
`CCC1=C[C@H]2CN(C1)Cc1c([nH]c3ccc(I)cc13)[C@@](C(=O)OC)(c1cc3c(cc1OC)N(C)[C@H]1[C@@](O)(C(=O)OC)[C@H](OC(C)=O)C4C(CC)=CCN5CC[C@]31[C@H]45)C2` (stereo partly shown) [Example 2, 11′-iodovinorelbine]: the concentration for 50% growth inhibition (GI50) in the assay with MOLT-4 was 0.0241 µM; in the assay with SK-OV-3, 0.0633 µM; in the assay on COLO 205, 0.0179 µM; in the assay with SK-MEL-5, 0.0188 µM; in the assay with EKVX it was 0.0726 µM; in the assay on SNB-19 it was 0.0625 µM. The GI50 in [1] (Homo sapiens, MCF7, 96 h) was 0.007 µM; in the assay with OVCAR-4 it was 0.264 µM; in the assay with HCC-2998, less than 0.01 µM; with SK-MEL-28, 0.0914 µM; in the assay on OVCAR-5 it was 0.225 µM.

Values taken from patent US7842802B2, “Vinorelbine derivatives” (priority 2003, dated 2010).
